In patent publication US11434242B2, “Dopamine-b-hydroxylase inhibitors” (BIAL-PORTELA & Cª, S.A., priority 2017, dated 2022):

Biological target: T1, Dopamine beta hydroxylase (Homo sapiens, UniProt P09172)
T1 construct: 125 μl of plasma; tissue Instituto Português do Sangue Transplantação; host or cells: human plasma from healthy donors
T1 sequence (P09172 40-617 limits assumed): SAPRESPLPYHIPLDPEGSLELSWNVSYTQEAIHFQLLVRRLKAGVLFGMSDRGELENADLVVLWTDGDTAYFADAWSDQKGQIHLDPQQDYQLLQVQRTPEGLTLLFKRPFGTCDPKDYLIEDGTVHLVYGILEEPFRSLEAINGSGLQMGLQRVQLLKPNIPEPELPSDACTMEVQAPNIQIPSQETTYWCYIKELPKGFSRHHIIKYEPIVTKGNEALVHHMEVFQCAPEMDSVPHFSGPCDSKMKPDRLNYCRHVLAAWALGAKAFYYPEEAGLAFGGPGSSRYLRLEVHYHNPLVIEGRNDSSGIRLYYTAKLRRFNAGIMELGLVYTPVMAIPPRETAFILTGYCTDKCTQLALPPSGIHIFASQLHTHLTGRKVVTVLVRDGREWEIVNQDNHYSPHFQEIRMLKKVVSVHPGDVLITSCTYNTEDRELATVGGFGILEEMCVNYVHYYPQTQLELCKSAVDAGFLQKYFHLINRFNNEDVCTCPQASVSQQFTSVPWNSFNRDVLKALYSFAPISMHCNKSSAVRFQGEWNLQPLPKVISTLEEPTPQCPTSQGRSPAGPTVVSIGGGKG
Assay: Dopamine beta hydroxylase activity in human plasma
Format: biochemical
Settings: for Plasma (0.01 μM), activity in % of control: inhibitor 0.01 μM; for Plasma (0.1 μM), activity in % of control: inhibitor 0.1 μM
Summary of the method: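 Healthy-donor human plasma pre-incubated 10 min at 37° C with compound at final 10, 100 or 1000 nM in pH 5.0 acetate buffer with ascorbate, fumarate, pargyline, N-ethylmaleimide, catalase and copper sulfate. Tyramine substrate then added for 45 min; octopamine formed was isolated by SCX cartridge, periodate-converted and read at 330 nm; activity given as % control.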

Row | Compound | Plasma (0.01 μM), activity in % of control | Plasma (0.1 μM), activity in % of control | Plasma (1 μM), activity in % of control (inhibitor 1 μM)
1 | Cn1c(CC(=O)N2CCCC2)c2n(c1=S)C[C@@]1(c3cc(Cl)ccc3F)C[C@@H]21 [Example 309, 2-((5aS,6aR)-5a-(5-chloro-2-fluorophenyl)-2-methyl-3-thioxo-2,3,5,5a,6,6a-hexahydrocyclopropa[3,4]pyrrolo[1,2-c]imidazol-1-yl)-1-(pyrrolidin-1-yl)ethan-1-one] | 86.2 % of control | 38.8 % of control | –
2 | CCOCCCc1[nH]c(=S)n2c1C[C@H](c1c(F)c(F)cc(F)c1F)C2 [Example 216, (R)-1-(3-ethoxypropyl)-6-(2,3,5,6-tetrafluorophenyl)-2,5,6,7-tetrahydro-3H-pyrrolo[1,2-c]imidazole-3-thione] | 84.5 % of control | 47.1 % of control | –
3 | N#CCNC(=O)Cc1[nH]c(=S)n2c1[C@@H]1C[C@]1(c1cc(Br)ccc1F)C2 [Example 144, 2-((5aS,6aR)-5a-(5-bromo-2-fluorophenyl)-3-thioxo-2,3,5,5a,6,6a-hexahydrocyclopropa[3,4]pyrrolo[1,2-c]imidazol-1-yl)-N-(cyanomethyl)acetamide] | – | 14.7 % of control | 0.1 % of control
4 | Cl.Fc1ccc(Br)cc1[C@]12C[C@H]1c1c(CCN3CCCC3)[nH]c(=S)n1C2 [Example 185, (5aS,6aR)-5a-(5-bromo-2-fluorophenyl)-1-(2-(pyrrolidin-1-yl)ethyl)-5,5a,6,6a-tetrahydrocyclopropa[3,4]pyrrolo[1,2-c]imidazole-3(2H)-thione hydrochloride] | 72.9 % of control | 30.9 % of control | –
5 | O=C(Cc1[nH]c(=S)n2c1C[C@@H](c1c(F)ccc(Br)c1F)C2)N1CCC2(CCOC2)C1 (stereo partly drawn) [Example 138, 2-((S)-6-(3-bromo-2,6-difluorophenyl)-3-thioxo-2,5,6,7-tetrahydro-3H-pyrrolo[1,2-c]imidazol-1-yl)-1-(2-oxa-7-azaspiro[4.4]nonan-7-yl)ethan-1-one] | 46.6 % of control | 5.0 % of control | –

More lines, now with the values ahead:

Row | Plasma (0.01 μM), activity in % of control | Plasma (0.1 μM), activity in % of control | Plasma (1 μM), activity in % of control (inhibitor 1 μM) | Compound
6 | 88.4 % of control | 61.4 % of control | – | Cn1c(CCC(=O)N2CCOCC2)c2n(c1=S)C[C@@H](c1c(F)c(F)cc(F)c1F)C2 [Example 318, (R)-3-(2-methyl-3-thioxo-6-(2,3,5,6-tetrafluorophenyl)-2,5,6,7-tetrahydro-3H-pyrrolo[1,2-c]imidazol-1-yl)-1-morpholinopropan-1-one]
7 | 58.5 % of control | 12.2 % of control | – | Cn1c(CC(=O)N2CCC(CF)C2)c2n(c1=S)C[C@H](c1c(F)ccc(Br)c1F)C2 (stereo partly drawn) [Example 458, 2-((S)-6-(3-bromo-2,6-difluorophenyl)-2-methyl-3-thioxo-2,5,6,7-tetrahydro-3H-pyrrolo[1,2-c]imidazol-1-yl)-1-(3-(fluoromethyl)pyrrolidin-1-yl)ethan-1-one]
8 | 94.4 % of control | 33.2 % of control | – | Cn1c(CC(=O)NC2CCOCC2)c2n(c1=S)C[C@@H](c1c(F)cccc1F)C2 [Example 447, (R)-2-(6-(2,6-difluorophenyl)-2-methyl-3-thioxo-2,5,6,7-tetrahydro-3H-pyrrolo[1,2-c]imidazol-1-yl)-N-(tetrahydro-2H-pyran-4-yl)acetamide]
9 | 95.4 % of control | 49.0 % of control | – | Cn1c(CC(=O)NC2COC2)c2n(c1=S)C[C@@H](c1c(F)ccc(F)c1F)C2 [Example 414, (R)-2-(2-methyl-3-thioxo-6-(2,3,6-trifluorophenyl)-2,5,6,7-tetrahydro-3H-pyrrolo[1,2-c]imidazol-1-yl)-N-(oxetan-3-yl)acetamide]
